These results are taken from PMC6397244, “Peptide Assembly on the Membrane Determines the HIV-1 Inhibitory Activity of Dual-Targeting Fusion Inhibitor Peptides” (Scientific Reports, 2019).

Ends that are not written are not given here.

Data set [1] relates to AC10 (HIV pseudotype, Env pAC10.0). The following applies: AC10 (R5, subtype B); TZM-bl, peptide 1 h before and during infection, luciferase read-out 48 h after infection; duplicates. From the text:
(§1) The anti-HIV activities of DT-peptides and E1 were comparatively tested against a set of viral pseudotypes carrying HIV envelopes from HIV subtype A, B, C and A/E (Table 1) in the TZM-bl reporter cell line.
(§2) The preparation of the HIV-1 Env pseudotyped virus stocks in a GCLP- (Good Clinical Laboratory Practice) compliant manner occurred as described previously. This includes the pseudoviruses listed in Table 2 with the Env sequences HXB2, AC10.0.29, Q461.e2, Q23.17, CAP210.2.00.E8 and CM235.c11 as well as the Env deficient backbone plasmid pSG3ΔEnv. Within this study the titration assay to determine the virus dilution at a relative luminescence unit (RLU) of 150,000 was performed according to the method described before[34]–[36] and the luminescence was measured using the Infinite F200 microplate reader.
(§3) Peptides were tested for their antiviral activities against a panel of HIV pseudotypes carrying different HIV envelope proteins (Table 2) in the TZM-bl indicator cell line. Briefly, 10-fold serial dilutions of the compounds (0.001–10 µM) were incubated in duplicates with the cells in 96-well plates. 1 h after incubation, cell culture medium was replaced and cells were infected with the different pseudotypes together with fresh compounds. […] 48 h after infection, cells were washed and luciferase was quantified using the Britelite Plus Luciferase Assay System (PerkinElmer). Luciferase values were normalized to DMSO control. Cell viability was estimated in parallel in non-infected TZM-bl cells with the Cell Titer Glo ATPase kit (Promega). CC50 and EC50 values ± SEM were calculated with GraphPad Prism, using the built-in function log (inhibitor) vs. normalized response.

The test system of data set [2] is CAP210 (HIV pseudotype, Env pCAP210.2). The following applies: CAP210 (R5, subtype C); TZM-bl, peptide 1 h before and during infection, luciferase read-out 48 h after infection; duplicates.
Excerpt: as §1, §2, §3

The test system of data set [3] is CM235 (HIV pseudotype, Env pCM235/GS). Particulars: CM235 (R5, subtype A/E); TZM-bl, peptide 1 h before and during infection, luciferase read-out 48 h after infection; duplicates.
Excerpt: as §1, §2, §3

Data set [4] concerns HXB2 (HIV pseudotype, Env pHXB2). Particulars: HXB2 (X4, subtype B); TZM-bl, peptide 1 h before and during infection, luciferase read-out 48 h after infection; duplicates.
Excerpt: as §1, §2, §3

Data set [5] deals with Q23 (HIV pseudotype, Env pQ23.17). The following applies: Q23 (R5, subtype A); TZM-bl, peptide 1 h before and during infection, luciferase read-out 48 h after infection; duplicates.
Excerpt: as §1, §2, §3

Data set [6] concerns Q461 (HIV pseudotype, Env pQ461.e2). Particulars: Q461 (R5, subtype A); TZM-bl, peptide 1 h before and during infection, luciferase read-out 48 h after infection; duplicates.
Excerpt: as §1, §2, §3

Data set [7] is described as follows: membrane affinity / partition, intrinsic Trp fluorescence on titration with POPC liposomes. The class given is physicochemical. The following applies: 5 µM peptide, POPC LUVs 0.05–0.6 mM, 20 °C; for apparent mole fraction partition coefficient KX: intrinsic Trp fluorescence (ex 280 nm), PBS 0.01 M pH 7.4 (method) / HEPES, triplicate. How it is done: Unilamellar vesicles (LUV) composed of the negatively charged phospholipid 1-palmitoyl-2-oleoyl-sn-glycero-3-phospho-(1′-rac-glycerol) (POPG) or zwitteronic phospholipid palmitoyl-2-oleoyl-sn-glycero-3-phosphocholine (POPC) (both from Avanti Polar-Lipids) were prepared as model membranes. Lipids (10 mM) were dissolved in chloroform/methanol (2/1, v/v) solution. The solvent was evaporated under reduced pressure. A buffer solution of PBS 0.01 M pH 7.4 was added to the previously obtained lipid film to prompt the spontaneous formation of multilamellar vesicles that were subjected to a process of 10 freeze and thaw cycles. The liposomes were then subjected to an extrusion process through 100-nm pore-sized polycarbonate filters in a high-pressure extruder.
To carry out membrane partition studies with DT-peptides, emission fluorescence spectra were recorded for DT-peptides in PBS (0.01 M, pH 7.4) at 20 °C using an excitation wavelength of 280 nm. Changes in the tryptophan (Trp) fluorescence spectra were monitored after incubation of 5 µM of each peptide with increasing concentrations of liposomes. The suspensions were continuously stirred and were left to equilibrate for 10 min before recording the spectra. Fluorescence intensities were corrected by subtraction of the vesicle blank. A lipid titration of N-acetyltryptophanamide (NATA) was carried out at the same time. As described in ref. [31], the apparent mole fraction partition coefficients were determined by fitting the binding curves to the equation: F=fboundFmax+(1−fbound)F0 where F is the relative fluorescence intensity, F0 is the fluorescence intensity in the absence of lipid. fbound=KxL/(W+KxL) where Kx is the mole fraction partition coefficient, L is the lipid concentration, and W is the molar concentration of water (55.3 M at 25 °C).

Data set [8] can be described thus: Trp quenching by brominated phospholipids. The class given is physicochemical. Particulars: 2 µM peptide, 200 µM Br-PC vs DOPC vesicles, 5 min, 25 °C, excitation 290 nm; three repeated assays. How it is done:
Quenching of Trp by brominated phospholipid was performed using liposomes composed of 1,2-di-(9-10-dibromo) stearoyl-sn-glycero-3-phosphocoline (Br-PC) (Avanti Polar Lipids). As previously reported, this lipid has similar properties as unsaturated phosphatidylcholine chains due to the bulkiness of bromine residues. For this reason, liposomes of 1,2-dioleoyl-sn-glycero-3-phosphocholine (DOPC) were used for comparing the Trp fluorescence of peptides with brominated liposomes. Liposomes were prepared following the same procedure as described above. Comparatively, a concentration of 2 µM of peptides was added to 200 µM of lipid vesicles either BrPC or DOPC. After 5 min of incubation at 25 °C, fluorescence spectra were recorded with an excitation wavelength of 290 nm and emission from 300 to 450 nm. The fractional quenching was calculated as reported in ref. [33] by (F0 − F)/F0, where F0 is the fluorescence intensity at 340 nm for peptides added to DOPC liposomes and F for peptides added to Br-PC liposomes.

In a further data set the test system is HIV-1 FP. The following applies: donor:acceptor 1:1 ratio; cited from earlier work. From the text: The energy transfer efficiency between FP and E1 peptide at a donor:acceptor 1:1 ratio, was around 30% while the energy transfer efficiency between FP and DT-P2 was only 5%.
Data set [9] can be described thus: 1D 1H NMR in DPC micelles. The class given is physicochemical. The following applies: NMR sample. How it is done:
Nuclear magnetic resonance (NMR) spectra were recorded at 300 K on a Bruker Avance III console (Bruker Biospin, Germany) combined with a […] Oxford Instruments magnet (^1H 500 MHz), equipped with a 5 mm inverse cryogenically cooled triple-resonance TCI (^1H, ^13C, ^15N, and ^2H lock) cryoprobe with a z-axis magnetic field-gradient capability. For proton spectra acquisition, peptide samples were prepared by dissolving first lyophilized peptide in a small amount of DMSO-d6 and next, dissolution in detergent solution containing perdeuterated DPC-d38 (final molar ratio ~ 1:100, peptide/DPC 0.5:50 mM). […] The diffusion coefficient, D, was determined by fitting diffusion weighted intensities of selected peaks or integrals over a chosen range to the following equation1 I=I0exp{−γ^2g^2δ^2(Δ−δ/3)D}, where γ is the gyromagnetic ratio of proton and g, δ and Δ are the amplitude, duration and separation of the single pair of gradient pulses, respectively. […] The reason for DPC diffusion coefficients being higher than peptides values is likely due to a surplus of free monomeric DPC molecules (below cmc), so the diffusion coefficient measured for DPC has a relevant contribution of […], while the observed peptide resonances (and their diffusion coefficient) mainly correspond to DPC-bound peptide.

Usually EC50 stands for the concentration at which the effect is half-maximal. With “WILEYLWKVPFDFWRGVIGGGSLCDCPNGPWVWVPAFCQAVG-NH2 (cysteines drawn unpaired) [DT-P2]”, the EC50 in [1] stood at 14 µM; in [2], 9.4 µM; in data set [3], 17.9 µM; in data set [4], 10.8 µM; in data set [5] it was 15.9 µM; in data set [6], 24.5 µM. The “apparent mole fraction partition coefficient KX” value in [7] was 2.4 × 10^5.
Turning to “WILEYLWKVPFDFWRGVI-NH2 (C-terminus assumed) [E1]”, the “Trp fluorescence upon titration with POPC liposomes / membrane partition (in words)” value in data set [7] (excitation 280 nm) is reported as “partitioned stronger into lipid vesicles”. Besides, the “apparent mole fraction partition coefficient KX” value in data set [7] is 8.2 × 10^5. In addition, the “Trp quenching by brominated lipid vesicles / accessibility for the lipids (in words)” value in [8] was “highly quenched demonstrating greater peptide accessibility to the hydrophobic inner part of the lipid vesicles”. Moreover, in the data set on HIV-1 FP, the “energy transfer efficiency between FP and peptide” value is listed as “around 30%”.
As for “LCDCPNGPWVWVPAFCQAVGGGGSWILEYLWKVPFDFWRGVI-NH2 (cysteines drawn unpaired) [DT-P1]”, the EC50 is 20.2 µM in data set [1]; 12.9 µM in [2]; 18.9 µM in data set [3]; 7.63 µM in data set [4]; 21.6 µM in data set [5]; 24.5 µM in data set [6]. In addition, the “effect of higher DMSO-d6 (from 3 to 13%) to increase solubility” value in data set [9] was “no improvement was observed”.
